From patent EP1226809B1, “SKIN TEXTURE-IMPROVING AGENTS” (KYOWA HAKKO KOGYO CO., LTD., priority 1999, dated 2001)
Where two headings read alike, the source gives them in different places.

Legend:
[1] = system: Human neonate-derived fibroblasts; assay: Measurement of collagen synthesis-promoting activity on human fibroblasts (3H-glycine incorporation); assay type: cell-based; conditions: 300 µmol/l
Experimental: 201-271, Kodansha Scientific (1986).
Human neonate-derived fibroblasts (Sanko Junyaku Co., Ltd.) were suspended in DMEM containing 10% fetal bovine serum [Virology, 8, 396 (1959)] and cultured at 37°C in 5% CO2 to the stationary phase. To the resulting culture were added ^3H-labeled glycine and a test substance, followed by further culturing for 72 hours. After 500 µmol/l phenylmethanesulfonyl fluoride (PMSF) was added to the obtained culture, the cells and the medium were collected, followed by disruption with a sonicator to extract proteins. To the extract were added 100 µmol/l bovine serum albumin (BSA) and 10% trichloroacetic acid (TCA), and the resulting mixture was centrifuged at 3000 rpm for 5 minutes to collect the precipitate. […]
After the reaction mixture was separated by ultrafiltration (molecular weight: 10,000), the radioactivity of the protein fraction in the filtrate (CDP) was measured as the amount of newly synthesized collagen. Then, the radioactivity of the protein fraction which was not filtered (NCDP) was measured, and the collagen synthesis ratio was calculated according to equation 2. The relative collagen synthesis-promoting activity (the change in collagen synthesis) was calculated according to equation 3 as the relative value of the collagen synthesis ratio in the presence of a test substance based on the control. […]

collagenase I (MMP-1) = conditions: 37°C, 4 hours
Experimental: Measurement of collagenase-inhibiting activity was carried out in the following manner according to the method described in Development and Application of Simple Microassay for Collagenase Activity; Nagai, et al., Inflammation, Vol. 4, p. 123-130, Nihon Igakukan (1984).
To 25 µl of a neutralization buffer (0.1 mol/l Tris hydrochloride, pH 7.5, 0.4 mol/l NaCl, 10 mmol/l CaCl2 and 0.04% NaN3) was added 25 µl of fluorescein isothiocyanate (FITC)-labeled collagen I (Cosmo Bio Co.) To the resulting mixture were further added 50 µl of collagenase I (MMP-1) (Cosmo Bio Co.) and a test sample dissolved in 10 µl of the neutralization buffer, followed by reaction at 37°C for 4 hours. To the reaction mixture was added 5 µl of a reaction terminating solution [80 mmol/l o-phenanthroline/50% (v/v) aqueous ethanol] to stop the reaction. To the resulting mixture was added 100 µl of a twice diluted neutralization buffer and the resulting mixture was allowed to stand at 35°C for 60 minutes. After cooling on ice for 5 minutes, 200 µl of 70% (v/v) aqueous ethanol was added to the mixture, followed by vigorous stirring for 5 minutes. The resulting mixture was centrifuged at 15,000 rpm at 4°C for 10 minutes to obtain the supernatant. By using a spectrophotofluorometer, the supernatant was irradiated with excitation light at 495 nm and emission light at 520 nm (A) was measured to determine the amount of decomposed collagen. The collagenase-inhibiting activity was calculated according to equation 4 by using data (B) obtained when purified water was employed in place of collagenase I and data (C) obtained when a neutralization buffer was employed in place of the test sample. Collagenase-inhibiting activity(%) = [(A)-(B)]/[(C)-(B)] × 100 [formula]

In the case of `Oc1cc(O)c2c(c1)O[C@H](c1ccc(O)c(O)c1)[C@H](O)[C@H]2c1c(O)cc(O)c2c1O[C@H](c1ccc(O)c(O)c1)[C@H](O)C2` [PB2, epicatechin-(4β→8)-epicatechin], the “Relative collagen synthesis-promoting activity (%)” value ([1]; after 72 hours of culturing, control = 100) was 120.8%, the “amount of collagen synthesized” value ([1]; result in words, compared with control (=100%)) was “increased” and the “Collagenase-inhibiting activity (%)” value (collagenase I (MMP-1); 100 µmol/l) was 69.4%. The “Collagenase-inhibiting activity (%)” value (collagenase I (MMP-1); 1 mmol/l) was 100%.
In the case of `Oc1cc(O)c2c(c1)O[C@H](c1ccc(O)c(O)c1)[C@H](O)[C@H]2c1c(O)cc(O)c2c1O[C@H](c1ccc(O)c(O)c1)[C@H](O)[C@H]2c1c(O)cc(O)c2c1O[C@H](c1ccc(O)c(O)c1)[C@H](O)C2` [PC1, epicatechin-(4β→ 8)-epicatechin-(4β→8)-epicatechin], the “Collagenase-inhibiting activity (%)” value (collagenase I (MMP-1); 1 µmol/l) was 17%, the “Collagenase-inhibiting activity (%)” value (collagenase I (MMP-1); 10 µmol/l) was 37% and the “Collagenase-inhibiting activity (%)” value (collagenase I (MMP-1); 100 µmol/l) was 100%.
